Here are results for twelve compounds from patent US4889859A, “Pyrido[2,3-d]pyrimidine derivatives” (priority 1988, dated 1989).

Structures are written as SMILES. Converted amounts (≈) assume the structure as drawn.

One data set concerns mouse L1210 leukemia. Conditions: literature; cited from earlier work.
The conditions of data set [1]: literature; cited from earlier work.
A further data set has as its system dihydrofolate reductase. The settings on record: literature; cited from earlier work.
The subject of data set [2] is human leukemia cell line (CCRF-CEM). Kind of data set: IC50 determined in whole cell human leukemia cell line (CCRF-CEM). It counts as cell-based. The text has this: Representative IC50 values determined in whole cell human leukemia cell line (CCRF-CEM) are as follows: […]
The test system of another data set is 6C3HED lymphosarcoma. Nature of the data set: 6C3HED lymphosarcoma in mice. Type of data set: in vivo.
Data set [3] deals with C3H mammary adenocarcinoma. Kind of data set: C3H mammary adenocarcinoma implanted in mice, intraperitoneal treatment for five days. Conditions: intraperitoneally for five days. Type of data set: in vivo. The protocol:
At a dosage of 100 mg/kg, 80% inhibition was observed.

With `Nc1nc(N)c2cc(CCc3ccc(C(=O)N[C@@H](CCC(=O)O)C(=O)O)cc3)ccc2n1` [5,8,10-trideazaaminopterin], the “activity against mouse L1210 leukemia” value in the data set on mouse L1210 leukemia is recorded as “exhibits activity”. In the case of `Nc1nc2ccc(CCc3ccc(C(=O)N[C@@H](CCC(=O)O)C(=O)O)cc3)cc2c(=O)[nH]1` [5,8,10-trideazafolic acid], in the data set with mouse L1210 leukemia, the “activity against mouse L1210 leukemia” value is “only marginal activity”. For the compound `Nc1nc2ncc(CNc3ccc(C(=O)N[C@@H](CCC(=O)O)C(=O)O)cc3)cc2c(=O)[nH]1` [5-Deazafolic acid], the cytotoxicity entry in data set [1] was “only weakly cytotoxic”. On to `Nc1nc(N)c2nc(CCc3ccc(C(=O)N[C@@H](CCC(=O)O)C(=O)O)cc3)ccc2n1` [8,10-Dideazaaminopterin], for which, in data set [1], the antimetabolic activity entry was “active”. Take `Nc1nc2ccc(CCc3ccc(C(=O)N[C@@H](CCC(=O)O)C(=O)O)cc3)nc2c(=O)[nH]1` [8,10-Dideazafolic acid]: the dihydrofolate reductase inhibition entry in the data set on dihydrofolate reductase is “only marginally effective”.

As for `Nc1nc(N)c2nc(CCc3ccc(C(=O)N[C@@H](CCC(=O)O)C(=O)O)cc3)cnc2n1` [10-Deazaaminopterin], in data set [1], the antimetabolic activity result is on record as “highly active”. On to `Nc1nc2ncc(CCc3ccc(C(=O)N[C@@H](CCC(=O)O)C(=O)O)cc3)nc2c(=O)[nH]1` [10-deazafolic acid], for which the antimetabolic activity result in data set [1] is given as “no significant activity”. Consider `Nc1nc(O)c2c(n1)NCC(CCc1cccc(C(=O)N[C@@H](CCC(=O)O)C(=O)O)c1)C2` (stereo partly drawn) [A, N-(3-[2-(2amino-4-hydroxy-5,6,7,8-tetrahydropyrido[2,3-d]pyrimidin-6-yl)ethyl]benzoyl)-L-glutamic acid], for which the IC50 – broadly, the concentration needed to halve the response being measured – in data set [2] was determined as 0.015 µg/mL (≈ 0.0338 µM). On to `CN(Cc1cnc2nc(N)nc(N)c2n1)c1ccc(C(=O)N[C@@H](CCC(=O)O)C(=O)O)cc1` [Amethopterin, 10-methylaminopterin], for which the dihydrofolate reductase inhibition entry with dihydrofolate reductase is given as “inhibits dihydrofolate reductase”. In the case of `Nc1nc(O)c2c(n1)NCC(CCc1ccc(C(=O)N[C@@H](CCC(=O)O)C(=O)O)c(F)c1)C2` (stereo partly drawn) [Compound H, N-(2-fluoro-4-[2-(2-amino-4-hydroxy-5,6,7,8-tetrahydropyrido[2,3-d]pyrimidin-6-yl)ethyl]benzoyl)-L-glutamic acid], the “% INHIBITION” value in the data set on 6C3HED lymphosarcoma (dose 25 (MK/KG)) amounted to 94%; with 6C3HED lymphosarcoma (dose 50 (MK/KG)), 95%; with 6C3HED lymphosarcoma (dose 100 (MK/KG)) it was 100%; with 6C3HED lymphosarcoma (dose 200 (MK/KG)) it was 100%. For the same compound, the TOXIC/TOTAL with 6C3HED lymphosarcoma (dose 25 (MK/KG)) was 0/9; in the data set with 6C3HED lymphosarcoma (dose 50 (MK/KG)), 0/10; in the data set with 6C3HED lymphosarcoma (dose 100 (MK/KG)), 0/10; in the data set with 6C3HED lymphosarcoma (dose 200 (MK/KG)) it was 0/10. This compound also yielded an IC50 in data set [2] of 0.004 µg/mL (≈ 0.00867 µM). Besides, in data set [3] (30 mg/kg and 100 mg/kg), the toxicity result is “No toxicity was observed”. The inhibition – broadly, how much of the control response was suppressed – in data set [3] (30 mg/kg) was determined as 72%; in data set [3] (100 mg/kg), 80%. For `Nc1nc(O)c2c(n1)NCC(CCc1ccc(F)c(C(=O)N[C@@H](CCC(=O)O)C(=O)O)c1)C2` (stereo partly drawn) [D, N-(2-fluoro-5-[2-(2-amino-4-hydroxy-5,6,7,8-tetrahydropyrido[2,3-d]pyrimidin-6-yl)ethyl]benzoyl)-L-glutamic acid], in data set [2], the midpoint of inhibition, the IC50, lay at 0.1 µg/mL (≈ 0.217 µM). In turn, `Nc1nc(O)c2c(n1)NCC(CCc1ccc(C(=O)N[C@@H](CCC(=O)O)C(=O)O)c(Cl)c1)C2` (stereo partly drawn) [F, N-(2-chloro-4-[2-(2-amino-4-hydroxy-5,6,7,8-tetrahydropyrido[2,3-d]pyrimidin-6-yl)ethyl]benzoyl)-L-glutamic acid] returned an IC50 in data set [2] of 0.027 µg/mL (≈ 0.0565 µM).
